Assay results as given in US6355799B1, “Substituted benzene compounds, process for their preparation, and herbicidal and defoliant compositions containing them” (ISK Americas Incorporated, priority 1997, dated 2002).

Tests used:
Assay type in all cases: in vivo
[1] = system: lambsquarters (Chenopodium album, CHEAL); assay: Post-emerge test, greenhouse herbicide activity screening; details: post-emerge, 14 days after application, rating scale 0-100
Outline: (§1)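 Herbicidal damage is scored 0 (none) to 100 (complete plant death) two weeks after a simulated field spray. Rates span 15–1000 g ai/ha, delivered in acetone at 187 l/ha. For post-emergence treatments, plants have 2–3 leaves and the spray carries 0.25% v/v non-ionic surfactant.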

[2] = system: barnyardgrass (Echinochloa crus-galli, ECHCG); assay: as above; details: post-emerge, 14 days after application, rating scale 0-100
Outline: as §1

[3] = system: johnsongrass (Sorghum halepense, SORHA); assay: as above; details: post-emerge, 14 days after application, rating scale 0-100
Outline: as §1

[4] = system: velvetleaf (Abutilon theophrasti, ABUTH); assay: as above; details: post-emerge, 14 days after application, rating scale 0-100
Outline: as §1

[5] = system: large crabgrass (Digitaria sanguinalis, DIGSA); assay: as above; details: post-emerge, 14 days after application, rating scale 0-100
Outline: as §1

[6] = system: green foxtail (Setaria viridis, SETVI); assay: as above; details: post-emerge, 14 days after application, rating scale 0-100
Outline: as §1

[7] = system: redroot pigweed (Amaranthus retroflexus, AMARE); assay: as above; details: post-emerge, 14 days after application, rating scale 0-100
Outline: as §1

[8] = system: sicklepod (Cassia obtusifolia, CASOB); assay: as above; details: post-emerge, 14 days after application, rating scale 0-100
Outline: as §1

[9] = system: ivyleaf morningglory (Ipomoea hederacea, IPOHE); assay: as above; details: post-emerge, 14 days after application, rating scale 0-100
Outline: as §1

[10] = system: upland rice (Oryza sp., var. Tebonnet, RICE); assay: Post-emerge test, crop safety; details: post-emerge, 14 days after application, rating scale 0-100
Outline: (§2)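 Compounds in acetone were track-sprayed at 187 l/ha, 15–1000 g ai/ha, onto sandy loam pots. Pre-emerge seeds were sown one day before spraying, with surface watering afterwards. Post-emerge plants were at the 2–3 leaf stage and sprayed with 0.25% v/v non-ionic surfactant. Injury was rated 0–100 at 14 days.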

[11] = system: field corn (Zea mays L., var. Dekalb 535, CORN); assay: Post-emerge test, crop safety; details: post-emerge, 14 days after application, rating scale 0-100
Outline: as §2

[12] = system: lambsquarters (Chenopodium album, CHEAL); assay: Pre-emerge test, greenhouse herbicide activity screening; details: rated 14 days after application, 0 = no damage, 100 = complete death
Outline: as §2

[13] = system: barnyardgrass (Echinochloa crus-galli, ECHCG); assay: as above; details: rated 14 days after application, 0 = no damage, 100 = complete death
Outline: as §2

[14] = system: johnsongrass (Sorghum halepense, SORHA); assay: as above; details: rated 14 days after application, 0 = no damage, 100 = complete death
Outline: as §2

[15] = system: velvetleaf (Abutilon theophrasti, ABUTH); assay: as above; details: rated 14 days after application, 0 = no damage, 100 = complete death
Outline: as §2

[16] = system: large crabgrass (Digitaria sanguinalis, DIGSA); assay: as above; details: rated 14 days after application, 0 = no damage, 100 = complete death
Outline: as §2

[17] = system: green foxtail (Setaria viridis, SETVI); assay: as above; details: rated 14 days after application, 0 = no damage, 100 = complete death
Outline: as §2

[18] = system: sicklepod (Cassia obtusifolia, CASOB); assay: as above; details: rated 14 days after application, 0 = no damage, 100 = complete death
Outline: as §2

[19] = system: ivyleaf morningglory (Ipomoea hederacea, IPOHE); assay: as above; details: rated 14 days after application, 0 = no damage, 100 = complete death
Outline: as §2

[20] = system: redroot pigweed (Amaranthus retroflexus, AMARE); assay: as above; details: rated 14 days after application, 0 = no damage, 100 = complete death
Outline: as §1

[21] = system: upland rice (Oryza sp., var. Tebonnet, RICE); assay: Pre-emerge test, crop safety; details: rated 14 days after application, 0 = no damage, 100 = complete death
Outline: (§3)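 Plants grown in 10 cm pots of sandy loam mix received acetone-dissolved compounds through a moving flat-fan nozzle. Doses ranged from 15 to 1000 g ai/ha. Pre-emerge pots were seeded one day earlier, post-emerge pots 8–21 days earlier. Fourteen days on, each pot was graded 0–100 for damage.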

[22] = system: field corn (Zea mays L., var. Dekalb 535, CORN); assay: Pre-emerge test, crop safety; details: rated 14 days after application, 0 = no damage, 100 = complete death
Outline: as §3

COc1c(Cl)cc(F)c(-n2c(=O)cc(C(F)(F)F)n(C)c2=O)c1N(C(=O)C=Cc1ccccc1Cl)C(=O)C=Cc1ccccc1Cl [2-83]
phytotoxicity rating CHEAL ([1]; 63 g ai/ha): 20 | phytotoxicity rating CHEAL ([1]; 250 g ai/ha): 50 | phytotoxicity rating ECHCG ([2]; 63 g ai/ha): 0 | phytotoxicity rating ECHCG ([2]; 250 g ai/ha): 0 | phytotoxicity rating SORHA ([3]; 63 g ai/ha): 0 | phytotoxicity rating SORHA ([3]; 250 g ai/ha): 0 | phytotoxicity rating ABUTH ([4]; 63 g ai/ha): 50 | phytotoxicity rating ABUTH ([4]; 250 g ai/ha): 70 | phytotoxicity rating DIGSA ([5]; 63 g ai/ha): 0 | phytotoxicity rating DIGSA ([5]; 250 g ai/ha): 0 | phytotoxicity rating SETVI ([6]; 63 g ai/ha): 0 | phytotoxicity rating SETVI ([6]; 250 g ai/ha): 0 | phytotoxicity rating AMARE ([7]; 63 g ai/ha): 40 | phytotoxicity rating AMARE ([7]; 250 g ai/ha): 90 | phytotoxicity rating CASOB ([8]; 63 g ai/ha): 0 | phytotoxicity rating CASOB ([8]; 250 g ai/ha): 0 | phytotoxicity rating IPOHE ([9]; 63 g ai/ha): 10 | phytotoxicity rating IPOHE ([9]; 250 g ai/ha): 20 | phytotoxicity rating RICE ([10]; 63 g ai/ha): 100 | phytotoxicity rating RICE ([10]; 250 g ai/ha): 0 | phytotoxicity rating CORN ([11]; 63 g ai/ha): 0 | phytotoxicity rating CORN ([11]; 250 g ai/ha): 0 | Pre-emerge Herbicidal Activity, phytotoxicity rating (0-100), CHEAL ([12]; 63 g ai/ha): 30 | Pre-emerge Herbicidal Activity, phytotoxicity rating (0-100), CHEAL ([12]; 250 g ai/ha): 90 | Pre-emerge Herbicidal Activity, phytotoxicity rating (0-100), ECHCG ([13]; 63 g ai/ha): 0 | Pre-emerge Herbicidal Activity, phytotoxicity rating (0-100), ECHCG ([13]; 250 g ai/ha): 0 | Pre-emerge Herbicidal Activity, phytotoxicity rating (0-100), SORHA ([14]; 63 g ai/ha): 0 | Pre-emerge Herbicidal Activity, phytotoxicity rating (0-100), SORHA ([14]; 250 g ai/ha): 20 | Pre-emerge Herbicidal Activity, phytotoxicity rating (0-100), ABUTH ([15]; 63 g ai/ha): 10 | Pre-emerge Herbicidal Activity, phytotoxicity rating (0-100), ABUTH ([15]; 250 g ai/ha): 100 | Pre-emerge Herbicidal Activity, phytotoxicity rating (0-100), DIGSA ([16]; 63 g ai/ha): 0 | Pre-emerge Herbicidal Activity, phytotoxicity rating (0-100), DIGSA ([16]; 250 g ai/ha): 30 | Pre-emerge Herbicidal Activity, phytotoxicity rating (0-100), SETVI ([17]; 63 g ai/ha): 0 | Pre-emerge Herbicidal Activity, phytotoxicity rating (0-100), SETVI ([17]; 250 g ai/ha): 40 | Pre-emerge Herbicidal Activity, phytotoxicity rating (0-100), CASOB ([18]; 63 g ai/ha): 0 | Pre-emerge Herbicidal Activity, phytotoxicity rating (0-100), CASOB ([18]; 250 g ai/ha): 0 | Pre-emerge Herbicidal Activity, phytotoxicity rating (0-100), IPOHE ([19]; 63 g ai/ha): 0 | Pre-emerge Herbicidal Activity, phytotoxicity rating (0-100), IPOHE ([19]; 250 g ai/ha): 0 | Pre-emerge Herbicidal Activity, phytotoxicity rating (0-100), AMARE ([20]; 63 g ai/ha): 60 | Pre-emerge Herbicidal Activity, phytotoxicity rating (0-100), AMARE ([20]; 250 g ai/ha): 100 | Pre-emerge phytotoxicity rating (0-100), crop damage, RICE ([21]; 63 g ai/ha): 0 | Pre-emerge phytotoxicity rating (0-100), crop damage, RICE ([21]; 250 g ai/ha): 0 | Pre-emerge phytotoxicity rating (0-100), crop damage, CORN ([22]; 63 g ai/ha): 0 | Pre-emerge phytotoxicity rating (0-100), crop damage, CORN ([22]; 250 g ai/ha): 0
